Values belong to the compound of their own block, whether it stands above or below them.
Assays:
[1] = in vivo; cited from earlier work
[2] = in vivo; cited from earlier work; remark: listed apart in the source
[3] = Solubility and stability; type: physicochemical
[4] = mouse, in vivo; cited from earlier work
[5] = three boys, 140 mg/kg/day i.v. then 70 mg/kg four times daily orally; cited from earlier work
[6] = test system: primary fibroblasts from male patients with cerebral ALD or AMN; experiment: LysoPC C26/C22 ratio in ALD/AMN patient-derived fibroblasts; type: cell-based, human; settings: 100 μM free 4PBA
Procedure: Primary fibroblasts from male patients with either cerebral adrenoleukodystrophy (ALD) or adrenomyeloneuropathy (AMN) phenotype were thawed and plated in wells to grow for 4 days. On the 4th day cells were treated with various doses of Dendrimer-4phenylbutyrate (D4PBA) or free 4PBA and maintained in the culture, the treatment was refreshed on Day 7. Cells were harvested for analysis on Day 11. The C26:0, C22:0, and C20:0 very long chain fatty acid fraction of lysophosphatidyl choline (LysoPC) was measured in the harvested cells and the Lyso PC C26/C22 fraction was then calculated as a measure of impaired peroxisomal beta-oxidation.

[7] = test system: TNF-alpha; experiment: VLCFA-induced TNF-alpha in patient-derived macrophages treated with D4PBA; type: cell-based, human; settings: 300 micromolar; controls, cerebral ALD and AMN patients
Procedure: In a further experiment, peripheral blood mononucleocytes were derived from a cerebral ALD patient, two AMN and one control subject differentiated in culture using same protocol as above for D-NAC therapy. On day 3, cells were treated with various doses of D4-PBA, and then again on day 5, and day 7. On day 7, macrophages were again stimulated with very long chain fatty acids (VLCFA) as in the D-NAC macrophage study mentioned above. Cells were then harvested at 6 h after stimulation.

[8] = test system: cells from X-ALD patients and X-ALD knockout mice; settings: cited from earlier work
[9] = test system: X-ALD mice; settings: mouse, in vivo; cited from earlier work

Compound: Cc1cc(OCC(=O)O)cc(C)c1Cc1ccc(O)c(C(C)C)c1 [sobetirome]
Serum lipids and cholesterol in animal models [1]: reduced serum lipids, decreased cholesterol levels | Plasma LDL cholesterol and triglycerides in humans [2]: lowers plasma LDL cholesterol and reduces plasma triglycerides

Water solubility [3]: water insoluble
Compound: CC(C)(Oc1ccc(CCNC(=O)c2ccc(Cl)cc2)cc1)C(=O)O [Bezafibrate]

Compound: C[C@@H]1C[C@H]2[C@@H]3CCC4=CC(=O)C=C[C@]4(C)C3=CC[C@]2(C)[C@@]1(O)C(=O)CO [VBP15]
Muscular dystrophy [4]: improves muscular dystrophy without side effects

Compound: CC(=O)N[C@@H](CS)C(=O)O [NAC, N-acetyl-L-cysteine]
MRI progression in advanced ccALD [5]: slowing of MRI progression and reversal of gadolinium-contrast enhancement on MRI

Water solubility [3]: water insoluble
Compound: O=C(O)CCCc1ccccc1 [Free 4PBA, 4-phenyl butyric acid]
LysoPC C26/C22 ratio, free drug [6]: no effect | VLCFA-induced TNF-alpha response, free drug [7]: reduced the VLCFA-induced TNF-alpha response | Very-long-chain fatty acid levels and beta-oxidation [8]: decreased levels of and increased beta-oxidation of very-long-chain fatty acids

Compound: Oc1ccc(C=Cc2cc(O)cc(O)c2)cc1 [Resveratrol]
Redox homeostasis, mitochondrial respiration, axonal degeneration, locomotor disabilities [9]: normalize redox homeostasis, mitochondrial respiration, bioenergetic failure, axonal degeneration and associated locomotor disabilities in the X-ALD mice

From patent publication US20170119899A1, “COMPOSITIONS AND METHODS FOR TREATMENT OF PEROXISOMAL DISORDERS AND LEUKODYSTROPHIES” (The Johns Hopkins University, priority 2015, published 2017)
